How the values were obtained:
[1] = system: in vitro translation; set-up: method as in PMID 10387101; settings: Cai et al.; read-out: IC50 (inhibitory potency); cited from earlier work
[2] = target: T1, X4E1a1’ (K102R) (Xenopus laevis, UniProt P48597, K102R); experiment: fluorescence titration, XeIF4E1a mutant; type: binding; settings: mutant (K102R) of XeIF4E1a
T1 construct: made in house; host or cells: E. coli Rosetta2(DE3)
Text: (§1) We tested the effect on cap-binding activity of these positions in the fluorescence assay with six mutated recombinant versions of Xenopus eIF4E1a (Fig. S4). The amino acids were introduced in XeIF4E1a sequentially in the order: E101S/K102R/S195A/M82S/T206L/T207S (numbering of the XeIF4E1a sequence is shifted backward by 4 amino acids relative to XeIF4E1b). […] The biggest contribution to the weaker cap binding of XeIF4E1a, in each case about 20%, resulted from changing Glu101 to Ser and Thr206 to Leu coupled with Thr207 to Ser, with the remaining mutations having only minor effects. […] Glu101 is a solvent-accessible amino acid and is proximal to Trp98 in the S3-S4 loop. […] Attenuation of the cap-binding affinity of XeIF4E1a resulting from mutating Thr206 and Thr207 is consistent with our results mentioned above showing significant influence of C-terminal loop residues on binding phosphate and the second nucleotide.
(§2) For human eIF4E1a and eIF4E1b and also for Xenopus eIF4E1a and its mutated forms, measurements were carried out using 0.1 μM protein in 50 mM Hepes/KOH (pH 7.2), 134.5 mM KCl, 0.5 mM EDTA and 1 mM DTT. For Xenopus eIF4E1b(ΔN27), the concentration was 0.2 μM and glycerol was added to the buffer to 10% (v/v) final concentration. […] The gradually increasing concentration of cap analogue quenches protein fluorescence without shifting the spectrum maximum, while at high concentrations, the fluorescence signal of free cap analogue dominates over the fluorescence from other solution components including free eIF4E and eIF4E in complex with cap (Fig. S2a). Fluorescence of measured samples was excited at 280 nm (2.5 nm bandwidth) and detected at 337 nm or 330 nm (4 nm bandwidth), thus reducing the signal originated from the free cap analogues. Measurements were carried out on a LS-55 spectrofluorometer (Perkin Elmer Co.) using freshly prepared proteins, and the fluorescence intensities were corrected for sample dilution and the inner filter effect.
(§3) Equilibrium association constants (Kas) were determined by fitting the theoretical dependence of fluorescence intensity on the total concentration of the cap analogue to the experimental data points, according to the equation described previously (see Ref. [22] and Fig. S2c). […] Along with Kas and the concentration of the active protein [P0^act], other parameters such as fL and ∆f = fPact − fPL are also gained from the fit, where fL represents the fluorescence efficiency of free cap analogue and ∆f represents the difference between the fluorescence efficiencies of the apo-protein and the complex (Fig. S2c).
(§4) The final Kas was calculated as a weighted average of 2–6 independent titrations with the weights taken as the reciprocal of the numerical standard deviation squared. Numerical, nonlinear least-squares regression analysis was performed using Origin 6.0 (Microcal Software Inc.). Obtained association constants were used to determine the Gibbs free energy according to the standard equation ΔG° = − RTlnKas.

[3] = target: T2, X4E1a1 (E101S) (Xenopus laevis, UniProt P48597, E101S); experiment: fluorescence titration, XeIF4E1a mutant; type: binding; settings: mutant (E101S) of XeIF4E1a
T2 construct: made in house; host or cells: E. coli Rosetta2(DE3)
Text: as §1, §2, §3, §4

[4] = target: T3, X4E1a3 (E101S/K102R/S195A) (Xenopus laevis, UniProt P48597, E101S/K102R/S195A); experiment: fluorescence titration, XeIF4E1a mutant; type: binding; settings: mutant (E101S/K102R/S195A) of XeIF4E1a
T3 construct: made in house; host or cells: E. coli Rosetta2(DE3)
Text: as §1, §2, §3, §4

[5] = target: T4, X4E1a2 (E101S/K102R) (Xenopus laevis, UniProt P48597, E101S/K102R); experiment: fluorescence titration, XeIF4E1a mutant; type: binding; settings: mutant (E101S/K102R) of XeIF4E1a
T4 construct: made in house; host or cells: E. coli Rosetta2(DE3)
Text: as §1, §2, §3, §4

[6] = target: T5, X4E1a4 (E101S/K102R/S195A/M82S) (Xenopus laevis, UniProt P48597, E101S/K102R/M82S/S195A); experiment: fluorescence titration, XeIF4E1a mutant; type: binding; settings: mutant (E101S/K102R/S195A/M82S) of XeIF4E1a
T5 construct: made in house; host or cells: E. coli Rosetta2(DE3)
Text: as §1, §2, §3, §4

[7] = target: T6, X4E1a6 (E101S/K102R/S195A/M82S/T206L/T207S) (Xenopus laevis, UniProt P48597, E101S/K102R/M82S/S195A/T206L/T207S); experiment: fluorescence titration, XeIF4E1a mutant; type: binding
T6 construct: made in house; host or cells: E. coli Rosetta2(DE3)
Text: as §1, §2, §3, §4

[8] = system: XeIF4E1bΔN27; experiment: time-synchronized fluorescence titration of cap analogue binding; set-up: species or system Xenopus laevis
Text: (§5) The time-synchronized fluorescence titration method, widely used to determine the affinity constants of cap–eIF4E complexes [[20,22–26]], measures the quenching of the intrinsic fluorescence of tryptophan residues due to cap binding (Fig. S2). Knowledge of the equilibrium association constant Kas enables the calculation of the free-energy changes involved in the interaction between eIF4E and ligand, according to the standard equation ΔG° = − RTlnKas.
(§6) For human eIF4E1a and eIF4E1b and also for Xenopus eIF4E1a and its mutated forms, measurements were carried out using 0.1 μM protein in 50 mM Hepes/KOH (pH 7.2), 134.5 mM KCl, 0.5 mM EDTA and 1 mM DTT. For Xenopus eIF4E1b(ΔN27), the concentration was 0.2 μM and glycerol was added to the buffer to 10% (v/v) final concentration. […] Fluorescence of measured samples was excited at 280 nm (2.5 nm bandwidth) and detected at 337 nm or 330 nm (4 nm bandwidth), thus reducing the signal originated from the free cap analogues. Measurements were carried out on a LS-55 spectrofluorometer (Perkin Elmer Co.) using freshly prepared proteins, and the fluorescence intensities were corrected for sample dilution and the inner filter effect.
(§7) Equilibrium association constants (Kas) were determined by fitting the theoretical dependence of fluorescence intensity on the total concentration of the cap analogue to the experimental data points, according to the equation described previously (see Ref. [22] and Fig. S2c).
as §4

[9] = target: T7, XeIF4E1a (Xenopus laevis, UniProt P48597); experiment: as above
T7 construct: made in house; host or cells: E. coli Rosetta2(DE3)
Text: as §5, §6, §7, §4

[10] = target: T8, heIF4E1a (Homo sapiens, UniProt P06730); experiment: as above
T8 construct: made in house; host or cells: E. coli Rosetta2(DE3)
Text: as §5, §6, §7, §4

[11] = system: XeIF4E1a; experiment: as above; set-up: species or system Xenopus laevis; settings: without glycerol
Text: as §5, §6, §7, §4

[12] = system: heIF4E1b; experiment: as above; set-up: species or system human; settings: without glycerol
Text: as §5, §6, §7, §4

[13] = target: T9, heIF4E1b (Homo sapiens, UniProt A6NMX2); experiment: as above
T9 construct: made in house; host or cells: E. coli Rosetta2(DE3)
T9 sequence (A6NMX2 1-242): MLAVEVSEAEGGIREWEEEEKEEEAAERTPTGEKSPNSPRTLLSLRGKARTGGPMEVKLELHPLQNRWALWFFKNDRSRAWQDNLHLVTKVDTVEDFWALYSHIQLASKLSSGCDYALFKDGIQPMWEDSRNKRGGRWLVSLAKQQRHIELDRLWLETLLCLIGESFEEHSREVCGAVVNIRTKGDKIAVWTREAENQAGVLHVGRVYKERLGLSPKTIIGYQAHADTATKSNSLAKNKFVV
Text: as §5, §6, §7, §4

[14] = equilibrium association constant, 10% glycerol
[15] = change relative to m^7GDP, without glycerol
[16] = equilibrium association constant, buffer without glycerol

T7 sequence (P48597 whole entry): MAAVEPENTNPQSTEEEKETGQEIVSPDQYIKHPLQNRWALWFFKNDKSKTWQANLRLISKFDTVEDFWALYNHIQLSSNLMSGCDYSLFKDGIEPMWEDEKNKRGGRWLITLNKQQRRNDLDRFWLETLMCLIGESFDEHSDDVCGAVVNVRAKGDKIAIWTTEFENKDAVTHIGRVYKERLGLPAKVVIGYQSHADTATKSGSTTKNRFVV
T6 sequence (P48597 whole entry M82S/E101S/K102R/S195A/T206L/T207S): as the sequence (P48597 whole entry) above, with M82S, E101S, K102R, S195A, T206L, T207S counted along it
T8 sequence (P06730 whole entry): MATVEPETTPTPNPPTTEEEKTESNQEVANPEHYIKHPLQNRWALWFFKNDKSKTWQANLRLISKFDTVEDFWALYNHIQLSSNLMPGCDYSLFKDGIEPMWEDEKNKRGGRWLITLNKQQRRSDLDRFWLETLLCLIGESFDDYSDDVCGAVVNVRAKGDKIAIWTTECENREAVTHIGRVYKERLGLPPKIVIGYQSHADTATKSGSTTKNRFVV
T4 sequence (P48597 whole entry E101S/K102R): as the sequence (P48597 whole entry) above, with E101S, K102R counted along it
T2 sequence (P48597 whole entry E101S): as the sequence (P48597 whole entry) above, with E101S counted along it
T3 sequence (P48597 whole entry E101S/K102R/S195A): as the sequence (P48597 whole entry) above, with E101S, K102R, S195A counted along it
T1 sequence (P48597 whole entry K102R): as the sequence (P48597 whole entry) above, with K102R counted along it
T5 sequence (P48597 whole entry M82S/E101S/K102R/S195A): as the sequence (P48597 whole entry) above, with M82S, E101S, K102R, S195A counted along it

Row | Kas X4E1a1’ [2] | Kas X4E1a1 [3] | Kas X4E1a3 [4] | Kas X4E1a2 [5] | Kas X4E1a4 [6] | Kas + glycerol X4E1a6 ([7]; 10% glycerol, Fig. 5d) | Kas X4E1a6 ([7]; mutant (E101S/K102R/S195A/M82S/T206L/T207S) of XeIF4E1a) | Ratio Kas (X4E1a) to Kas (X4E1bΔN27) ([8]; 10% glycerol) | fold increase of association constant compared with m^7GDP ([8]; benzyl substitution) | Kas + glycerol XeIF4E1bΔN27 [8, 14] | ΔΔG^o − glycerol XeIF4E1a [9, 15] | Kas + glycerol XeIF4E1a [9, 14] | Kas − glycerol XeIF4E1a [9, 16] | ΔΔG^o − glycerol heIF4E1a [10, 15] | Kas − glycerol heIF4E1a [10, 16] | Ratio Kas (h4E1a) to Kas (X4E1a) [11] | Ratio Kas (h4E1a) to Kas (h4E1b) [12] | fold increase of association constant compared with m^7GDP ([13]; benzyl substitution) | Kas − glycerol heIF4E1b [13, 16] | SMILES | IC50 [1]
1 |  |  |  |  |  |  |  |  |  |  |  |  |  |  |  |  |  |  |  | Nc1nc2c(c(=O)[nH]1)[n+](Cc1ccc(Cl)cc1)cn2[C@@H]1O[C@H](COP(=O)([O-])O)[C@@H](O)[C@H]1O [p-Cl-bn^7GMP] | 51 µM
2 | 11.22 ± 0.65 µM⁻¹ | 9.01 ± 0.21 µM⁻¹ | 9.08 ± 0.33 µM⁻¹ | 8.86 ± 0.16 µM⁻¹ | 11.66 ± 0.64 µM⁻¹ | 3.57 ± 0.24 µM⁻¹ | 7.09 ± 0.18 µM⁻¹ | 1.38 | ~2 fold | 4.36 ± 0.18 μM^− 1 | 0.042 ± 0.059 kcal/mol | 6.04 ± 0.92 μM^− 1 | 10.62 ± 0.98 μM^− 1 | 0.033 ± 0.022 kcal/mol | 16.79 ± 0.56 μM^− 1 | 1.58 | 0.47 | approximately 5 fold | 35.4 ± 1.6 μM^− 1 | Nc1nc2c(c(=O)[nH]1)n(Cc1ccccc1)c[n+]2[C@@H]1O[C@H](COP(=O)(O)OP(=O)(O)O)[C@@H](O)[C@H]1O [bn^7GDP] | 
3 |  |  |  |  |  |  |  |  |  |  |  |  |  |  |  |  |  |  |  | Nc1nc2c(c(=O)[nH]1)n(Cc1ccc(Cl)cc1)c[n+]2[C@@H]1O[C@H](COP(=O)([O-])OP(=O)(O)O)[C@@H](O)[C@H]1O [p-Cl-bn^7GDP] | 6.76 µM

Reference: paper PMC4306533, “Distinct Features of Cap Binding by eIF4E1b Proteins” (Journal of Molecular Biology, 2015)
